We go through one sequence from article PMC5428013, “Peptide-Au Clusters Induced Tumor Cells Apoptosis via Targeting Glutathione Peroxidase-1: The Molecular Dynamics Assisted Experimental Studies” (Scientific Reports, 2017).

For this assay, the system named is A549 cells. As to the kind of experiment: Apoptosis evaluation, Annexin V-FITC/PI dual staining. The note with it: 48 h. The format is cell-based, human. Here is the method: Apoptosis detection with Annexin V-FITC/PI fluorescence dual staining was carried out by flow cytometry. Briefly, about 2 mL of 1 × 10^5 cells/mL of A549 cells were seeded in 6-well plate for 24 h before treatment with Au25P1_9 at different Au doses. The cells were treated with Au25P1_9 (Au dose at 0, 100, 200, 400 and 800 μM) for 48 h, respectively. Then culture medium and cells in each well were collected and centrifuged at 1200 rpm for 3 min. The supernatant was discarded and the cells were washed twice with PBS. 195 μL Annexin V-FITC binding buffer was added to re-suspend the cells at a dose of ~5 × 10^5 cells/mL in 1.5 mL Eppendorf tube. 5 μL Annexin V-FITC and 10 μL PI stains were added into each cell suspension, respectively. The tubes were incubated at room temperature under darkness for exactly 15 min. The fluorescence of the cells was determined immediately with flow cytometer. Cells at the early stage of apoptotic process were stained with the Annexin V-FITC alone. Necrotic cells were stained by both the Annexin V-FITC and PI. […] So, the percentage of apoptotic and necrosis cells can be analyzed by Cflow software.

As for “CCYGGPEEEEEVG [Au25P1_9, Au25 cluster coated by nine P1 peptides (…)]”, the cell apoptosis ratio (A549, Au25P1_9 dose 100 μM (Au)) came to 5.8% and the cell apoptosis ratio (A549, Au25P1_9 dose 800 μM (Au)) is 15.2%. Further, the “cell apoptosis dose dependence” value (A549, Au dose 0, 100, 200, 400, 800 μM) is “dose-dependent manner”.
